Calls of active or inactive are those of the source. No cut-off for these calls is given here.
Assays:
[1] = Antioxidant activity assessed as DPPH radical scavenging activity after 30 mins under dark condition by spectrophotometric analysis; type: functional
Mus musculus [2] = assay: (§1) Radioprotective activity in ip dosed Swiss albino mouse assessed as reduction in gamma-irradiation-induced decline in serum albumin level at 1/10 x LD50 treated at 2 hrs prior to 5 Gy gamma irradiation exposure on 1st day followed by compound treatment for next 2 days and measured at 24 hrs post last dose; type: functional, organism-based; details: time 3.0 day
Mus musculus [3] = assay: (§2) Hepatoprotective activity in ip dosed Swiss albino mouse assessed as serum AST level at 1/10 x LD50 treated at 2 hrs prior to 5 Gy gamma irradiation exposure on 1st day followed by compound treatment for next 2 days and measured at 24 hrs post last dose; type: functional, organism-based; details: time 3.0 day
Mus musculus [4] = assay: as §2, with “Antioxidant” for “Hepatoprotective”, “reduction in gamma irradiation-induced hepatic oxidative stress by measuring increase in SOD activity in liver” for “serum AST level”; type: functional; parameters: scale not given: the % may be the effect or the level left; details: time 3 day
Mus musculus [5] = assay: Hepatoprotective activity in ip dosed Swiss albino mouse assessed as serum ALT level at 1/10 x LD50 treated at 2 hrs prior to 5 Gy gamma irradiation exposure on 1st day followed by compound treatment for next 2 days and measured at 24 hrs post last dose; type: functional, organism-based; details: time 3.0 day
Mus musculus [6] = assay: as §2, with “Antioxidant” for “Hepatoprotective”, “reduction in gamma irradiation-induced hepatic oxidative stress by measuring increase in Zn2+ concentration in liver” for “serum AST level”; type: functional; parameters: scale not given: the % may be the effect or the level left; details: time 3 day
Mus musculus [7] = assay: as §1, with “gamma irradiation-induced decrease” for “gamma-irradiation-induced decline”, “PON1 activity by measuring increase in PON1 activity in liver” for “serum albumin level”; type: functional; parameters: scale not given: the % may be the effect or the level left; details: time 3 day
Mus musculus [8] = assay: Radioprotective activity in ip dosed Swiss albino mouse assessed as reduction in gamma irradiation-induced increase in NF-kappaB activity by measuring decrease in NFkappaB activity in liver at 1/10 x LD50 treated at 2 hrs prior to 5 Gy gamma irradiation exposure on 1st day followed by compound treatment for next 2 days and measured at 24 hrs post last dose by ELISA; type: functional; details: time 3 day
Mus musculus [9] = assay: (§3) Antioxidant activity in ip dosed Swiss albino mouse assessed as reduction in gamma irradiation-induced hepatic oxidative stress by measuring reduction in ROS level in liver at 1/10 x LD50 treated at 2 hrs prior to 5 Gy gamma irradiation exposure on 1st day followed by compound treatment for next 2 days and measured at 24 hrs post last dose; type: functional; details: time 3 day
[10] = Acute toxicity in ip dosed Swiss albino mouse measured after 24 hrs; type: organism-based; details: in vivo
Mus musculus [11] = assay: as §3, with “MDA” for “ROS”; type: functional; details: time 3 day

| Structure (SMILES) | IC50 [1] | other results |
| --- | --- | --- |
| CCOC(=O)N1CCC(NC(=O)CSc2nc3ccccc3c(=O)n2-c2ccc(S(N)(=O)=O)cc2)CC1 | 108 µM |  |
| NS(=O)(=O)c1ccc(-n2c(SCC(=O)NC3CCN(Cc4ccccc4)CC3)nc3ccccc3c2=O)cc1 | 104 µM |  |
| NS(=O)(=O)c1ccc(-n2c(SCC(=O)Nc3nnc(C(F)(F)F)s3)nc3ccccc3c2=O)cc1 | 107 µM |  |
| NS(=O)(=O)c1ccc(-n2c(SCC(=O)Nc3cnccn3)nc3ccccc3c2=O)cc1 | 45.8 µM | Activity (Mus musculus [2]): Active; Activity (Mus musculus [3]): inactive; Activity (Mus musculus [4]): 157%; Activity (Mus musculus [5]): inactive; Activity (Mus musculus [6]): 39.4%; Activity (Mus musculus [7]): 104.8%; inhibition (INH) (Mus musculus [8]): 45.6%; inhibition (INH) (Mus musculus [9]): 30.6%; LD50 at 24 h [10]: 200 mg/kg; inhibition (INH) (Mus musculus [11]): 49% |
| NS(=O)(=O)c1ccc(-n2c(SCC(=O)Nc3nccs3)nc3ccccc3c2=O)cc1 | 125 µM |  |
| NS(=O)(=O)c1ccc(-n2c(SCC(=O)Nc3nc4ccc([N+](=O)[O-])cc4s3)nc3ccccc3c2=O)cc1 | 94.8 µM |  |
| O=C1O[C@H]([C@@H](O)CO)C(O)=C1O [ASCORBIC ACID] | 132 µM |  |

Continued, in another order:

| IC50 [1] | Structure (SMILES) | other results |
| --- | --- | --- |
| 69.8 µM | NS(=O)(=O)c1ccc(-n2c(SCC(=O)NCCN3CCOCC3)nc3ccccc3c2=O)cc1 |  |
| 48.5 µM | CN1C(=O)c2ccc(NC(=O)CSc3nc4ccccc4c(=O)n3-c3ccc(S(N)(=O)=O)cc3)cc2C1=O |  |
| 66.4 µM | NS(=O)(=O)c1ccc(-n2c(SCC(=O)NN3CCOCC3)nc3ccccc3c2=O)cc1 |  |
| 89.5 µM | CCOC(=O)c1ccccc1NC(=O)CSc1nc2ccccc2c(=O)n1-c1ccc(S(N)(=O)=O)cc1 |  |
| 50.5 µM | CCOc1ccc2nc(NC(=O)CSc3nc4ccccc4c(=O)n3-c3ccc(S(N)(=O)=O)cc3)sc2c1 |  |
| 82.4 µM | Cc1cc(NC(=O)CSc2nc3ccccc3c(=O)n2-c2ccc(S(N)(=O)=O)cc2)no1 |  |
| 54.4 µM | NS(=O)(=O)c1ccc(-n2c(SCC(=O)Nc3c[nH]c(=O)[nH]c3=O)nc3ccccc3c2=O)cc1 |  |
| 65.7 µM | CCOC(=O)c1cccc(NC(=O)CSc2nc3ccccc3c(=O)n2-c2ccc(S(N)(=O)=O)cc2)c1 |  |
| 56.4 µM | Cn1c(NC(=O)CSc2nc3ccccc3c(=O)n2-c2ccc(S(N)(=O)=O)cc2)cc(=O)n(C)c1=O |  |
